Results on nine molecules are retold here after patent US5126359A, “Substituted bisazoles and their use as medicaments” (Bayer Aktiengesellschaft, priority 1988, dated 1992).

Values after ≈ are worked out from the molar mass of the structure shown.

In one test the test system is Torulopsis glabrata. Put plainly: Antimycotic in vitro activity, serial dilution test (MIC), Torulopsis glabrata. Format: cell-based. As to conditions: Nakaseomyces glabratus; Meat extract-dextrose broth; 28° to 37° C.; 24 to 48 hours. The procedure:
(§1) The in vitro tests were carried out in a serial dilution test using inocula of microorganisms of on average 5×10^3 to 10^4 microorganisms/ml of substrate. The nutrient medium used was (b) for yeasts: Meat extract-dextrose broth. The incubation temperature was 28° to 37° C., and the incubation period was 24 to 48 hours with yeasts and 96 hours with Dermatophytes and hyphomycetes.

Test [1] has as its system Trichophyton mentagrophytes. Put plainly: Antimicrobial in vivo activity (topical) in the experimental guinea-pig trichophytosis model. As to conditions: 1 × daily, 0.1% strength solution, from 3rd day. Also on record: species or system guinea-pig (Pirbright white). The procedure: White guinea-pigs of the Pirbright white strain are infected on the shaven, non-scarified back with a micro- and macroconidia suspension of Trichophyton mentagrophytes. The infected animals were treated topically 1 × daily with a 0.1% strength solution of the preparation according to the invention (in dimethyl sulphoxide: glycerol=1.4) beginning with the 3rd day. In untreated animals, the typical picture of a dermatophytosis with reddening, scaling and hair loss up to total integumental defect of the infection site developed within 12 days p.i.

A further test concerns Trichophyton mentagr. Put plainly: Antimycotic in vitro activity, serial dilution test (MIC), Trichophyton mentagrophytes. The format is cell-based. As to conditions: Kimmig's test medium, 28° to 37° C., 96 hours. The procedure: (§2) The in vitro tests were carried out in a serial dilution test using inocula of microorganisms of on average 5×10^3 to 10^4 microorganisms/ml of substrate. The nutrient medium used was
(§3) (a) for dermatophytes and Hyphomycetes: Kimmig's test medium
(§4) The incubation temperature was 28° to 37° C., and the incubation period was 24 to 48 hours with yeasts and 96 hours with Dermatophytes and hyphomycetes.

Test [2] relates to dermatophytes, Hyphomycetes and yeasts. Put plainly: Antimycotic in vitro activity, serial dilution test, overall comparison with the prior art. As to conditions: in words. The format is cell-based. The procedure: as §2, §3
Meat extract-dextrose broth.
as §4

For the next test, the system named is Candida albicans. Put plainly: Antimycotic in vitro activity, serial dilution test (MIC), Candida albicans. The format is cell-based. As to conditions: Meat extract-dextrose broth, 28° to 37° C., 24 to 48 hours. As to the method:
as §1

A further test deals with Candida. Put plainly: Antimycotic in vivo activity (oral) in mouse candidosis. Also on record: species or system mouse (SPF-CF1). As to conditions: 10 to 100 mg/kg; for action in mouse candidosis, in words / Action (oral) in mouse candidosis: 6th day p.i.; for Action (oral) in mouse candidosis: one hour before and seven hours after infection; for surviving on the 6th day p.i.: untreated control about 5% survival. The procedure:
Mice of the SPF-CF1 type were infected intravenously with 1-2×10^6 exponentially growing Candida cells which are suspended in physiological saline solution. One hour before and seven hours after infection, the animals are treated orally in each case with 10 to 100 mg/kg of body weight of the preparation. Untreated animals died on the 3rd to 6th day post-infection. The survival rate on the 6th day post-infection was about 5% in untreated control animals.

In the next test the test system is Aspergillus fumigatus. The test can be described thus: Antimycotic in vitro activity, serial dilution test (MIC), Aspergillus fumigatus. As to conditions: Kimmig's test medium, 28° to 37° C., 96 hours. The format is cell-based. The procedure: as §2, §3, §4

Regarding `OC(Cn1cncn1)(c1ccc(F)c(F)c1)C1(n2cnc(Cl)n2)CC1` (stereo not shown) [Example 11, 1-[1-(3-Chloro-1,2,4-triazol-1-yl)-cyclopropyl]-1-(3,4-difluorophenyl)-2-(1,2,4-triazol-1-yl)-ethan-1-ol], the minimal inhibitory concentration (MIC) against Torulopsis glabrata was above 64 mg/L; with Trichophyton mentagr., 16 mg/L (≈ 43.6 µM); against Candida albicans, 16 mg/L (≈ 43.6 µM); in the test on Aspergillus fumigatus, 64 mg/L (≈ 175 µM). In addition, in test [1], the “action in guinea-pig trichophytosis, in words” value is “good action”. The “antimycotic action compared with compounds (A) and (B) known from the prior art” value in test [2] is “better antimycotic action than the compounds (A) and (B)”. The “action in mouse candidosis, in words” value in the test with Candida is “good to very good action”. In addition, in the test on Candida, the “Action (oral) in mouse candidosis” value is listed as “+++++ (very good action = 90% surviving on the 6th day p.i.)”. Further, in the test with Candida, the “surviving on the 6th day p.i.” value is given as above 80%.

`Cc1ccc(C(O)(Cn2cncn2)C2(n3cnc(Cl)n3)CC2)cc1` (stereo not shown) [Example 8, 1-[1-(3-Chloro-1,2,4-triazol-1-yl)-cyclopropyl]-1-(4-methylphenyl)-2-(1,2,4-triazol-1-yl)-ethan-1-ol]: the MIC is above 64 mg/L in the test on Torulopsis glabrata, 4 mg/L (≈ 11.6 µM) in the test on Trichophyton mentagr., 16 mg/L (≈ 46.4 µM) in the test with Candida albicans and 16 mg/L (≈ 46.4 µM) against Aspergillus fumigatus. Further, the “antimycotic action compared with compounds (A) and (B) known from the prior art” value in test [2] is “better antimycotic action than the compounds (A) and (B)”.

`OC(Cn1cncn1)(Cn1cncn1)c1cccc(Cl)c1` [(A), reference compound]: the minimal inhibitory concentration (MIC) was above 64 mg/L in the test with Torulopsis glabrata, 32 mg/L (≈ 105 µM) against Trichophyton mentagr., above 64 mg/L against Candida albicans and above 64 mg/L in the test with Aspergillus fumigatus.

As for `OC(Cn1cncn1)(Cn1cncn1)c1ccccc1` [(B), reference compound], the minimum inhibitory concentration (MIC) in the test on Torulopsis glabrata is above 64 mg/L; with Trichophyton mentagr., 64 mg/L (≈ 237 µM); in the test with Candida albicans it was 64 mg/L (≈ 237 µM); with Aspergillus fumigatus, above 64 mg/L.

`OC(Cn1cncn1)(c1ccccc1)C1(n2cnc(Cl)n2)CC1` (stereo not shown) [Example 6, 1-[1-(3-Chloro-1,2,4-triazol-1-yl)-cyclopropyl]-1-phenyl-2-(1,2,4-triazol-1-yl)-ethan-1-ol]: the MIC was above 64 mg/L in the test on Torulopsis glabrata, 8 mg/L (≈ 24.2 µM) against Trichophyton mentagr., 32 mg/L (≈ 96.7 µM) against Candida albicans and 16 mg/L (≈ 48.4 µM) against Aspergillus fumigatus. In addition, the “action in guinea-pig trichophytosis, in words” value in test [1] is given as “good action”. Also, the “antimycotic action compared with compounds (A) and (B) known from the prior art” value in test [2] was “better antimycotic action than the compounds (A) and (B)”. In the test with Candida, the “action in mouse candidosis, in words” value is reported as “good to very good action”. In the test on Candida, the “Action (oral) in mouse candidosis” value is given as “+++++ (very good action = 90% surviving on the 6th day p.i.)”. Moreover, in the test on Candida, the “surviving on the 6th day p.i.” value is listed as above 80%.

As to `OC(Cn1cncn1)(c1ccc(-c2ccccc2)cc1)C1(n2cnc(Cl)n2)CC1` (stereo not shown) [Example 9, 1-(4-Biphenyl)-1-[1-(3-chloro-1,2,4-triazol-1-yl)-cyclopropyl]-2-(1,2,4-triazol-1-yl)-ethan-1-ol], the minimal inhibitory concentration (MIC) stood at 16 mg/L (≈ 39.3 µM) in the test on Torulopsis glabrata, 4 mg/L (≈ 9.83 µM) against Trichophyton mentagr., 32 mg/L (≈ 78.6 µM) in the test with Candida albicans and 16 mg/L (≈ 39.3 µM) in the test on Aspergillus fumigatus. Besides, in test [2], the “antimycotic action compared with compounds (A) and (B) known from the prior art” value was “better antimycotic action than the compounds (A) and (B)”.

With `OC(Cn1cncn1)(c1ccc(Cl)cc1)C1(n2cnc(Cl)n2)CC1` (stereo not shown) [Example 4, 1-(4-Chlorophenyl)-1-[1-(3-chloro-1,2,4-triazol-1-yl)-cyclopropyl]-2-(1,2,4-triazol-1-yl)-ethan-1-ol], the minimal inhibitory concentration (MIC) is above 64 mg/L in the test on Torulopsis glabrata, 4 mg/L (≈ 11 µM) in the test with Trichophyton mentagr., 8 mg/L (≈ 21.9 µM) in the test with Candida albicans and 32 mg/L (≈ 87.6 µM) in the test with Aspergillus fumigatus. For the same molecule, the “antimycotic action compared with compounds (A) and (B) known from the prior art” value in test [2] is “better antimycotic action than the compounds (A) and (B)”. Also, the “action in mouse candidosis, in words” value with Candida was “good to very good action”. For the same molecule, the “Action (oral) in mouse candidosis” value in the test with Candida is “+++++ (very good action = 90% surviving on the 6th day p.i.)”. Further, the “surviving on the 6th day p.i.” value in the test on Candida was above 80%.

Turning to `OC(Cn1cncn1)(c1ccc(F)cc1)C1(n2cnc(Cl)n2)CC1` (stereo not shown) [Example 7, 1-[1-(3-Chloro-1,2,4-triazol-1-yl)-cyclopropyl]-1-(4-fluorophenyl)-2-(1,2,4-triazol-1-yl)-ethan-1-ol], the MIC in the test with Torulopsis glabrata was above 64 mg/L; against Trichophyton mentagr., 8 mg/L (≈ 22.9 µM); in the test with Candida albicans it was 32 mg/L (≈ 91.8 µM); in the test with Aspergillus fumigatus it was 32 mg/L (≈ 91.8 µM). Moreover, the “antimycotic action compared with compounds (A) and (B) known from the prior art” value in test [2] was “better antimycotic action than the compounds (A) and (B)”. In addition, in the test with Candida, the “action in mouse candidosis, in words” value was “good to very good action”. Further, the “Action (oral) in mouse candidosis” value in the test on Candida is reported as “+++++ (very good action = 90% surviving on the 6th day p.i.)”. Moreover, the “surviving on the 6th day p.i.” value in the test with Candida is reported as above 80%.

For `OC(Cn1cncn1)(c1ccc(F)cc1F)C1(n2cnc(Cl)n2)CC1` (stereo not shown) [Example 10, 1-[1-(3-Chloro-1,2,4-triazol-1-yl)-cyclopropyl]-1-(2,4-difluorophenyl)-2-(1,2,4-triazol-1-yl)-ethan-1-ol], the minimal inhibitory concentration (MIC) with Torulopsis glabrata was above 64 mg/L; against Trichophyton mentagr., 16 mg/L (≈ 43.6 µM); against Candida albicans, 32 mg/L (≈ 87.3 µM); against Aspergillus fumigatus, 16 mg/L (≈ 43.6 µM). The “action in guinea-pig trichophytosis, in words” value in test [1] is reported as “good action”. For the same molecule, the “antimycotic action compared with compounds (A) and (B) known from the prior art” value in test [2] is “better antimycotic action than the compounds (A) and (B)”. Further, the “action in mouse candidosis, in words” value with Candida is “good to very good action”. For the same molecule, the “Action (oral) in mouse candidosis” value with Candida was “+++++ (very good action = 90% surviving on the 6th day p.i.)”. Moreover, the “surviving on the 6th day p.i.” value with Candida is reported as above 80%.

What is called MIC is the lowest concentration found to suppress growth.
